Laboratory results reported in the NIST ThermoML archive (doi:10.1016/j.jct.2016.09.007).
Numbers after ± are expanded uncertainties.

Assay: xn = mol fraction of the nth substance listed
Settings: 93.2 kPa, Liquid; for speed of sound: Frequency=3 MHz, Sing-around technique in a fixed-path interferometer; for mass density: Vibrating tube method

CCCC(=O)[O-].CCCC[NH3+] [n-butylammonium butanoate] + CCCO
Settings | mass density, 293.15 K [kg/m3] | mass density, 298.15 K [kg/m3] | mass density, 303.15 K [kg/m3] | mass density, 308.15 K [kg/m3] | mass density, 313.15 K [kg/m3] | speed of sound, 293.15 K [m/s] | speed of sound, 298.15 K [m/s] | speed of sound, 303.15 K [m/s] | speed of sound, 308.15 K [m/s] | speed of sound, 313.15 K [m/s]
x1 = 0.0507 | 820.248 ± 4 | 816.288 ± 4 | 812.295 ± 4 | 808.263 ± 4 | 804.187 ± 4 | 1245.5 ± 5.3 | 1228.1 ± 5.3 | 1210.8 ± 5.3 | 1193.6 ± 5.3 | 1176.7 ± 5.3
x1 = 0.1012 | 834.054 ± 4 | 830.162 ± 4 | 826.227 ± 4 | 822.265 ± 4 | 818.288 ± 4 | 1264 ± 5.3 | 1246.6 ± 5.3 | 1229.4 ± 5.3 | 1212.2 ± 5.3 | 1195.2 ± 5.3
x1 = 0.1518 | 845.668 ± 4 | 841.844 ± 4 | 837.991 ± 4 | 834.106 ± 4 | 830.181 ± 4 | 1280 ± 5.3 | 1262.6 ± 5.3 | 1245.3 ± 5.3 | 1228.2 ± 5.3 | 1211.2 ± 5.3
x1 = 0.202 | 855.786 ± 4 | 852.003 ± 4 | 848.218 ± 4 | 844.396 ± 4 | 840.532 ± 4 | 1294.2 ± 5.3 | 1276.9 ± 5.3 | 1259.7 ± 5.3 | 1242.6 ± 5.3 | 1225.6 ± 5.3
x1 = 0.2517 | 864.424 ± 4 | 860.713 ± 4 | 856.978 ± 4 | 853.215 ± 4 | 849.411 ± 4 | 1306.7 ± 5.3 | 1289.3 ± 5.3 | 1272.1 ± 5.3 | 1255 ± 5.3 | 1238.2 ± 5.3
x1 = 0.3003 | 871.964 ± 4 | 868.301 ± 4 | 864.616 ± 4 | 860.902 ± 4 | 857.161 ± 4 | 1317.9 ± 5.3 | 1300.6 ± 5.3 | 1283.4 ± 5.3 | 1266.4 ± 5.3 | 1249.5 ± 5.3
x1 = 0.3334 | 876.626 ± 4 | 872.985 ± 4 | 869.329 ± 4 | 865.652 ± 4 | 861.938 ± 4 | 1325 ± 5.3 | 1307.7 ± 5.3 | 1290.6 ± 5.3 | 1273.6 ± 5.3 | 1256.7 ± 5.3
x1 = 0.401 | 885.2 ± 4 | 881.621 ± 4 | 878.022 ± 4 | 874.402 ± 4 | 870.759 ± 4 | 1338.2 ± 5.3 | 1321 ± 5.3 | 1303.9 ± 5.3 | 1286.9 ± 5.3 | 1270.2 ± 5.3
x1 = 0.4478 | 890.446 ± 4 | 886.895 ± 4 | 883.335 ± 4 | 879.756 ± 4 | 876.162 ± 4 | 1346.9 ± 5.3 | 1329.7 ± 5.3 | 1312.6 ± 5.3 | 1295.7 ± 5.3 | 1279 ± 5.3
x1 = 0.5001 | 895.864 ± 4 | 892.351 ± 4 | 888.828 ± 4 | 885.287 ± 4 | 881.725 ± 4 | 1355.5 ± 5.3 | 1338.3 ± 5.3 | 1321.2 ± 5.3 | 1304.4 ± 5.3 | 1287.8 ± 5.3
x1 = 0.5465 | 900.176 ± 4 | 896.692 ± 4 | 893.2 ± 4 | 889.694 ± 4 | 886.168 ± 4 | 1362.8 ± 5.3 | 1345.6 ± 5.3 | 1328.5 ± 5.3 | 1311.7 ± 5.3 | 1295.1 ± 5.3
x1 = 0.5992 | 904.688 ± 4 | 901.241 ± 4 | 897.78 ± 4 | 894.304 ± 4 | 890.806 ± 4 | 1370.7 ± 5.3 | 1353.4 ± 5.3 | 1336.4 ± 5.3 | 1319.6 ± 5.3 | 1303 ± 5.3
x1 = 0.6495 | 908.619 ± 4 | 905.208 ± 4 | 901.781 ± 4 | 898.337 ± 4 | 894.874 ± 4 | 1377.9 ± 5.3 | 1360.5 ± 5.3 | 1343.5 ± 5.3 | 1326.6 ± 5.3 | 1310.1 ± 5.3
x1 = 0.6928 | 911.76 ± 4 | 908.377 ± 4 | 904.977 ± 4 | 901.561 ± 4 | 898.121 ± 4 | 1384 ± 5.3 | 1366.5 ± 5.3 | 1349.4 ± 5.3 | 1332.5 ± 5.3 | 1316 ± 5.3
x1 = 0.7484 | 915.581 ± 4 | 912.23 ± 4 | 908.868 ± 4 | 905.487 ± 4 | 902.083 ± 4 | 1392 ± 5.3 | 1374.2 ± 5.3 | 1356.9 ± 5.3 | 1340 ± 5.3 | 1323.4 ± 5.3
x1 = 0.7906 | 918.267 ± 4 | 914.932 ± 4 | 911.595 ± 4 | 908.238 ± 4 | 904.859 ± 4 | 1398.1 ± 5.3 | 1380.1 ± 5.3 | 1362.6 ± 5.3 | 1345.6 ± 5.3 | 1328.9 ± 5.3
x1 = 0.8695 | 922.883 ± 4 | 919.552 ± 4 | 916.236 ± 4 | 912.916 ± 4 | 909.578 ± 4 | 1409.8 ± 5.3 | 1391.2 ± 5.3 | 1373.3 ± 5.3 | 1355.9 ± 5.3 | 1339 ± 5.3
x1 = 0.9443 | 926.755 ± 4 | 923.441 ± 4 | 920.127 ± 4 | 916.826 ± 4 | 913.524 ± 4 | 1420 ± 5.3 | 1400.6 ± 5.3 | 1382 ± 5.3 | 1364.2 ± 5.3 | 1347 ± 5.3
x1 = 1 | 928.794 ± 4 | 925.509 ± 4 | 922.217 ± 4 | 918.88 ± 4 | 915.567 ± 4 | 1431.5 ± 5.3 | 1410.3 ± 5.3 | 1390.4 ± 5.3 | 1371.5 ± 5.3 | 1353.6 ± 5.3

CCCC(=O)[O-].CCCC[NH3+] [n-butylammonium butanoate] + CCO
Settings | mass density, 293.15 K [kg/m3] | mass density, 298.15 K [kg/m3] | mass density, 303.15 K [kg/m3] | mass density, 308.15 K [kg/m3] | mass density, 313.15 K [kg/m3] | speed of sound, 293.15 K [m/s] | speed of sound, 298.15 K [m/s] | speed of sound, 303.15 K [m/s] | speed of sound, 308.15 K [m/s] | speed of sound, 313.15 K [m/s]
x1 = 0.0512 | 814.143 ± 4 | 810.002 ± 4 | 805.829 ± 4 | 801.613 ± 4 | 797.355 ± 4 | 1199 ± 5.2 | 1182 ± 5.2 | 1165 ± 5.2 | 1148.2 ± 5.2 | 1131.5 ± 5.2
x1 = 0.1009 | 832.02 ± 4 | 828.016 ± 4 | 823.986 ± 4 | 819.912 ± 4 | 815.802 ± 4 | 1227.7 ± 5.2 | 1210.7 ± 5.2 | 1193.8 ± 5.2 | 1177 ± 5.2 | 1160.4 ± 5.2
x1 = 0.1503 | 846.238 ± 4 | 842.335 ± 4 | 838.406 ± 4 | 834.444 ± 4 | 830.445 ± 4 | 1251.6 ± 5.2 | 1234.6 ± 5.2 | 1217.8 ± 5.2 | 1201.1 ± 5.2 | 1184.5 ± 5.2
x1 = 0.1994 | 858.208 ± 4 | 854.396 ± 4 | 850.551 ± 4 | 846.681 ± 4 | 842.738 ± 4 | 1272.7 ± 5.2 | 1255.7 ± 5.2 | 1238.9 ± 5.2 | 1222.2 ± 5.2 | 1205.7 ± 5.2
x1 = 0.2504 | 868.474 ± 4 | 864.721 ± 4 | 860.912 ± 4 | 857.053 ± 4 | 853.31 ± 4 | 1291.1 ± 5.2 | 1274.2 ± 5.2 | 1257.4 ± 5.2 | 1240.8 ± 5.2 | 1224.2 ± 5.2
x1 = 0.2982 | 876.405 ± 4 | 872.722 ± 4 | 869.017 ± 4 | 865.27 ± 4 | 861.491 ± 4 | 1306 ± 5.2 | 1289.1 ± 5.2 | 1272.3 ± 5.2 | 1255.7 ± 5.2 | 1239.2 ± 5.2
x1 = 0.3495 | 883.788 ± 4 | 880.151 ± 4 | 876.505 ± 4 | 872.836 ± 4 | 869.15 ± 4 | 1320 ± 5.2 | 1303.1 ± 5.2 | 1286.3 ± 5.2 | 1269.7 ± 5.2 | 1253.3 ± 5.2
x1 = 0.399 | 890.046 ± 4 | 886.464 ± 4 | 882.862 ± 4 | 879.217 ± 4 | 875.544 ± 4 | 1332.2 ± 5.2 | 1315.3 ± 5.2 | 1298.5 ± 5.2 | 1282 ± 5.2 | 1265.5 ± 5.2
x1 = 0.4372 | 894.397 ± 4 | 890.847 ± 4 | 887.284 ± 4 | 883.704 ± 4 | 880.105 ± 4 | 1340.7 ± 5.2 | 1323.8 ± 5.2 | 1307.1 ± 5.2 | 1290.5 ± 5.2 | 1274.1 ± 5.2
x1 = 0.4992 | 900.42 ± 4 | 896.912 ± 4 | 893.396 ± 4 | 889.863 ± 4 | 886.306 ± 4 | 1352.8 ± 5.2 | 1335.9 ± 5.2 | 1319.2 ± 5.2 | 1302.6 ± 5.2 | 1286.2 ± 5.2
x1 = 0.547 | 904.601 ± 4 | 901.123 ± 4 | 897.636 ± 4 | 894.139 ± 4 | 890.621 ± 4 | 1361.5 ± 5.2 | 1344.5 ± 5.2 | 1327.7 ± 5.2 | 1311.2 ± 5.2 | 1294.8 ± 5.2
x1 = 0.6017 | 908.757 ± 4 | 905.303 ± 4 | 901.834 ± 4 | 898.348 ± 4 | 894.849 ± 4 | 1370.4 ± 5.2 | 1353.3 ± 5.2 | 1336.5 ± 5.2 | 1319.9 ± 5.2 | 1303.6 ± 5.2
x1 = 0.649 | 912.071 ± 4 | 908.66 ± 4 | 905.237 ± 4 | 901.798 ± 4 | 898.346 ± 4 | 1377.6 ± 5.2 | 1360.5 ± 5.2 | 1343.6 ± 5.2 | 1326.9 ± 5.2 | 1310.6 ± 5.2
x1 = 0.6917 | 914.76 ± 4 | 911.378 ± 4 | 907.983 ± 4 | 904.574 ± 4 | 901.145 ± 4 | 1384 ± 5.2 | 1366.7 ± 5.2 | 1349.7 ± 5.2 | 1333 ± 5.2 | 1316.6 ± 5.2
x1 = 0.7436 | 917.782 ± 4 | 914.431 ± 4 | 911.071 ± 4 | 907.692 ± 4 | 904.29 ± 4 | 1391.5 ± 5.2 | 1373.9 ± 5.2 | 1356.7 ± 5.2 | 1339.9 ± 5.2 | 1323.4 ± 5.2
x1 = 0.7901 | 920.284 ± 4 | 916.95 ± 4 | 913.616 ± 4 | 910.264 ± 4 | 906.897 ± 4 | 1398.2 ± 5.3 | 1380.2 ± 5.3 | 1362.8 ± 5.2 | 1345.9 ± 5.2 | 1329.3 ± 5.2
x1 = 0.8493 | 923.093 ± 4 | 919.763 ± 4 | 916.446 ± 4 | 913.124 ± 4 | 909.786 ± 4 | 1406.5 ± 5.3 | 1388 ± 5.3 | 1370.2 ± 5.3 | 1352.9 ± 5.3 | 1336.2 ± 5.3
x1 = 0.8904 | 924.887 ± 4 | 921.547 ± 4 | 918.232 ± 4 | 914.921 ± 4 | 911.604 ± 4 | 1412.5 ± 5.3 | 1393.5 ± 5.3 | 1375.2 ± 5.3 | 1357.7 ± 5.3 | 1340.7 ± 5.3
x1 = 0.94 | 927.026 ± 4 | 923.73 ± 4 | 920.395 ± 4 | 917.09 ± 4 | 913.789 ± 4 | 1420.7 ± 5.3 | 1400.8 ± 5.3 | 1382 ± 5.3 | 1364 ± 5.3 | 1346.7 ± 5.3
x1 = 1 | 928.794 ± 4 | 925.509 ± 4 | 922.217 ± 4 | 918.88 ± 4 | 915.567 ± 4 | 1431.5 ± 5.3 | 1410.3 ± 5.3 | 1390.4 ± 5.3 | 1371.5 ± 5.3 | 1353.6 ± 5.3
